Ten compounds from patent US11247973B2 (The University of Durham, priority 2016, dated 2022) can be followed below.

Where “and” joins values, the source holds several entries; their conditions need not be identical. Identical values can stand only once. Like-named read-outs stand apart in the source and are kept apart here.

Holding throughout (format): cell-based
In one series the test system is RSV. Briefly: Cytopathic effect (CPE) assay. The following applies: human respiratory syncytial virus, read-out: CPE IC50. An excerpt: (§1) Cells were obtained from ATCC and the virus preparation was subjected to one round of centrifugation through a 40% (V/V) glycerol to remove any interferon produced from infected cells. Growth medium was Dulbecco's modified Eagle's medium (DMEM) with 10% (v/v) foetal calf serum (FCS), Viral maintainance medium was DMEM+2% (v/v) FCS.
Cytopathic Effect (CPE) Assay—IC50:
(§2) A549 cells and HeLa cells were used to seed a set of 96 well plates grown until 50% confluent, a 2 fold serial dilution of the compound was performed on each cell line with DMSO (only) as control starting with 100 μM of the compound. Medium used was DMEM+2% FCS (normal medium for viral growth).
(§3) Cells were allowed to grow for 6-8 days to mimic a TCID50 assay after which cell viability was determined by adding Almar blur (similar to XT) and reading at 600 nm (excitation 540 nm).
A general note: Damage to the host cells serves as the signal in cytopathic effect assays.

The nature of series [1]: Cell cytotoxicity CC50 assay (A549 and HeLa cells). The conditions noted are these: human, 6-8 days, DMEM+2% FCS.
Text: as §1
Cell Cytotoxicity—CC50 (Concentration at which 50% Cell Toxicity is Observed):
as §2, §3

In a further series the test system is RSV A2 VR-1540. Briefly: Second plaque reduction assay (HEp-2 cells). The following applies: multiple values = multiple test occasions. From the text:
Cells were obtained from ATCC and the virus preparation was subjected to one round of centrifugation through a 40% (V/V) glycerol to remove any interferon produced from infected cells. Growth medium was Dulbecco's modified Eagle's medium (DMEM) with 10% (v/v) foetal calf serum (FCS), Viral maintenance medium was DMEM+2% (v/v) FCS.
The RSV plaque reduction assay is an infectivity assay which allows quantification of the number of infectious units in a distinct foci of RSV infection. This is indicated by zones of viral antigen detected by specific antibody staining within a monolayer of otherwise healthy tissue culture cells. As each plaque originates from a single infectious virus particle an accurate calculation of the anti-viral effect can be obtained by counting plaques in the presence and absence of an anti-viral compound. HEp-2 cells (ATCC, CCL23) were passaged in flasks and seeded in 96-well plates in DMEM containing antibiotics and supplemented with 10% FBS. During inoculation and subsequent incubation, cells were cultured in DMEM containing 3% FBS. 100 plaque forming unit (PFU)/well of RSV (RSV A2 VR-1540) was mixed with ten serial dilutions of compound. Subsequently, 100 μL of the virus/compound mixtures was added to confluent HEp-2 cell monolayers. The cells and virus/compound mixtures were incubated at 35° C. in a humidified 5% CO2 incubator for 1 day.
Cells were washed twice with PBS before adding 50% v/v EtOH/MeOH, and then stored at −20° C. On the day of the staining, fixative was first removed from the plates. Plates were washed 3× with PBS. A pre-titrated amount of the primary antibody was added in 60 μL PBS/2% milk powder, and plates incubated for 1 h at rt. The plates were washed 3× with PBS/0.05% Tween20 before addition of goat anti-mouse horse radish peroxidase in 60 μL PBS/2% milk powder, and incubated for 1 h at rt. Following three wash steps with PBS/0.05% Tween20, 60 μL ready-to-use TrueBlue was added and plates were incubated at rt for 10-15 min before adding MilliQ water. Plates were washed once with water, incubated for 30-60 min and after removal of water, air-dried in the dark.
Plates were scanned and analyzed using the Immunospot S6 UV analyzer, which is equipped with BioSpot analysis software for counting immunostained plaques (virospots). Plaque counts were used to calculate % infection relative to the mean of the spot count (SC) in the virus control wells for RSV. IC50/IC90 values were calculated as 50% or 90% reduction in signal, respectively, by interpolation of inhibition curves fitted with a 4-parameter nonlinear regression with a variable slope in GraphPad 5.0 (Prism).

Another series deals with HepG2 cells. Nature of the series: Cell cytotoxicity CC50, HepG2 cells (CellTox Green). The conditions noted are these: 48-hour incubation, multiple values = multiple test occasions, read-out: Tox CC50. How it is done:
(§4) HepG2 cells, in media supplemented with 10% fetal bovine serum (FBS), were seeded at […] into white walled 96 well plates and incubated at 37° C., 5% CO2. Twenty-four hours post seeding media was removed and replaced with media supplemented with 2% FBS and containing final compound concentrations equal to those tested in parallel virus plaque assays. Following a further 48-hour incubation cell cytotoxicity was determined using the CellTox™ Green (Promega) kit and […] read using an appropriate protocol on a GloMax® Explorer System (Promega). During analysis DMSO containing wells were used as a negative control and lysed cells as a positive control.

Test in series [2]: as above
The following applies: human, 48-hour incubation, multiple values = multiple test occasions, read-out: Tox CC50. As for the experimental part:
as §4

Where [3] appears, read: human respiratory syncytial virus, HEp-2, 24 h, read-out: Plaque IC50, HEp-2 cells, RSV A2, 1 day.
Setting [4] is: read-out: Plaque IC50, HEp-2 cells, RSV A2, 1 day.

A word on the IC50: it is the concentration that inhibits the measured activity by half. The term CC50 denotes the concentration that lowers cell viability or growth by half. On to `O=C(CNc1ccccc1)N[C@H]1N=C(c2ccccc2)c2ccccc2NC1=O` [Compound 1, N-{(3S)-2-oxo-5-phenyl-2,3-dihydro-1H-1,4-benzodiazepin-3-yl](phenylamino)acetamide], for which the IC50 with RSV (A549 cells and HeLa cells, 6-8 days, DMEM+2% FCS) was found to be 2.5 µM. In addition, in series [1], the CC50 came to 25 µM.
In the case of `CCOc1nc(F)c(F)c(NCC(=O)N[C@H]2N=C(c3ccccc3)c3ccccc3NC2=O)c1F` [Compound 4, 2-[(2-ethoxy-3,5,6-trifluoropyridin-4-yl)amino]-N-{(3S)-2-oxo-5-phenyl-2,3-dihydro-1H-1,4-benzodiazepin-3-yl]acetamide], in the series on RSV, the IC50 amounted to 2.5 µM. Further, the CC50 in series [1] was > 100 µM.
As to `O=C1Nc2ccccc2C(c2ccccc2)=N[C@@H]1NC(=O)[C@H]1CCCN1c1c(F)c(F)nc(F)c1F` [Compound 6, N(2R)-N-[(3S)-2-oxo-5-phenyl-2,3-dihydro-1H-1,4-benzomazepin-3-yl]-1-(2,3,5,6-tetrafluoropyridin-4-yl)pyrrolidine-2-carboxamide], the IC50 in the series with RSV A2 VR-1540 (HEp-2 cells, RSV A2, 1 day, read-out: Plaque IC50) was 4.39 µM and 8.33 µM. For the same compound, in the series with HepG2 cells, the CC50 was > 25 µM.
On to `CC(C)[C@H](Nc1c(F)c(F)nc(F)c1F)C(=O)N[C@H]1N=C(c2ccccc2)c2ccccc2NC1=O` [Compound 7, (2S)-3-Methyl-N-[(3S)-2-oxo-5-phenyl-2,3-dihydro-1H-1,4-benzodiazepin-3-yl]-2-[(2,3,5,6-tetrafluoropyridin-4-yl)amino]butanamide], for which the IC50 is 5.18 µM in the series on RSV A2 VR-1540 (setting [3]); 8.68 µM and 10 µM in the series with RSV A2 VR-1540 (setting [4]). Moreover, the CC50 at 48 h in series [2] came out at 16 µM. In addition, the CC50 in the series on HepG2 cells is > 25 µM.
In the case of `CC(C)[C@@H](Nc1c(F)c(F)nc(F)c1F)C(=O)N[C@H]1N=C(c2ccccc2)c2ccccc2NC1=O` [Compound 8, (2R)-3-Methyl-N-[(3S)-2-oxo-5-phenyl-2,3-dihydro-1H-1,4-benzodiazepin-3-yl]-2-[(2,3,5,6-tetrafluoropyridin-4-yl)amino]butanamide], the CC50 at 48 h in series [2] was > 25 µM. The CC50 in the series with HepG2 cells turned out to be 16.3 µM.
`C[C@H](Nc1c(F)c(F)nc(F)c1F)C(=O)N[C@H]1N=C(c2ccccc2)c2ccccc2NC1=O` [Compound 9, (2S)-N-[(3S)-2-oxo-5-phenyl-1,3-dihydro-1,4-benzodiazepin-3-yl]-2-[(2,3,5,6-tetrafluoropyridin-4-yl)amino]propanamide]: the IC50 in the series with RSV A2 VR-1540 (setting [3]) was determined as 5.22 µM; with RSV A2 VR-1540 (setting [4]) it was 3.76 µM. Also, in series [2], the cytotoxic concentration (CC50) at 48 h is > 25 µM.
As for `C[C@@H](Nc1c(F)c(F)nc(F)c1F)C(=O)N[C@H]1N=C(c2ccccc2)c2ccccc2NC1=O` [Compound 10, (2R)-N-[(3S)-2-oxo-5-phenyl-1,3-dihydro-1,4-benzodiazepin-3-yl]-2-[(2,3,5,6-tetrafluoropyridin-4-yl)amino]propanamide], the IC50 was 3.38 µM with RSV A2 VR-1540 (setting [3]) and 1.79 µM in the series on RSV A2 VR-1540 (setting [4]). In addition, the CC50 at 48 h in series [2] is > 25 µM.
In the case of `O=C(N[C@H]1N=C(c2ccccc2)c2ccccc2NC1=O)[C@H](Cc1ccccc1)Nc1c(F)c(F)nc(F)c1F` [Compound 11], the CC50 in the series with HepG2 cells was > 25 µM.
Consider `O=C(CNc1nc(F)c(F)c(N2CCOCC2)c1F)N[C@H]1N=C(c2ccccc2)c2ccccc2NC1=O` [Compound 14, N-[(3S)-2-oxo-5-phenyl-2,3-dihydro-1H-1,4-benzodiazepin-3-yl]-2-{[3,5,6-trifluoro-4-(morpholin-4-yl)pyridin-2-yl]amino}acetamide], for which the CC50 at 48 h in series [2] is > 25 µM.
In the case of `O=C(CNc1cc(Cl)ncn1)N[C@H]1N=C(c2ccccc2)c2ccccc2NC1=O` [Compound 18, 2-[(6-Chloropyrimidin-4-yl)amino]-N-[(3S)-2-oxo-5-phenyl-2,3-dihydro-1H-1,4-benzodiazepin-3-yl]acetamide], the IC50 worked out at 4.93 µM in the series on RSV A2 VR-1540 (setting [3]) and 9.33 µM with RSV A2 VR-1540 (setting [4]). Moreover, the CC50 at 48 h in series [2] was > 25 µM.
